Positions of bridges follow the written chain, without caps; N, C: chain ends. Non-standard residues stand in square brackets, D forms with d. Residues, ends and D or L forms follow the SMILES beside them. *: point of attachment. Malonyl(2,2-Me2,histaminyl) = CC(C)(C(=O)NCCc1cnc[nH]1)C(=O)*; Ala(1H-tetrazol-5-yl) = N[C@@H](Cc1nnn[nH]1)C(=O)O; αMePhe(2-F) = C[C@](N)(Cc1ccccc1F)C(=O)O; αMeL = CC(C)C[C@](C)(N)C(=O)O; Nle = CCCC[C@H](N)C(=O)O; Aib = CC(C)(N)C(=O)O
Key:
human GLP2 receptor = molecular target: T1, human GLP2 receptor (Homo sapiens, UniProt O95838); assay: cAMP accumulation assay, functional agonism of human GLP2 receptor; type: cell-based; conditions: HEK cells infected with human GLP2 receptor BacMam virus, HTRF cAMP; for Emax: HEK293, read-out: Human GLP-2R agonist cAMP Emax; for EC50: read-out: Human GLP-2R agonist cAMP pEC50 (converted)
T1 construct: expressed in transfected cells; host or cells: HEK cells, BacMam virus transduction
T1 sequence (O95838 1-553): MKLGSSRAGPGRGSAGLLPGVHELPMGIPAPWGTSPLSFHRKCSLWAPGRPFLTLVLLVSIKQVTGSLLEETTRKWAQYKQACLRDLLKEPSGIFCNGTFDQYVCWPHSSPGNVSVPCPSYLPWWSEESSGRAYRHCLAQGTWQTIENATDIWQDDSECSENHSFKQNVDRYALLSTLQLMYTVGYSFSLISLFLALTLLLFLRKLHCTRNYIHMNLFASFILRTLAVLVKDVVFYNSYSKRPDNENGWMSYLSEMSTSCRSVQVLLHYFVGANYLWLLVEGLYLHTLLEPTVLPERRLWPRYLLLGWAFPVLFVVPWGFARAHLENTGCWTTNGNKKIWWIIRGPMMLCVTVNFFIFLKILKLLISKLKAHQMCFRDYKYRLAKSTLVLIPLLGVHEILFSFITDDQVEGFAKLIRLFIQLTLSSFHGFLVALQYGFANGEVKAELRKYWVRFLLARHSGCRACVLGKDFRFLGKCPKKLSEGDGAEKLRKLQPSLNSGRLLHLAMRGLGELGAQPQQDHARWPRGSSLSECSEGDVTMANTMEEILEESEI
Description: (§1) CAMP production upon agonist stimulation of human GLP2 or GLP1 receptor was assessed utilizing HiRange cAMP kit (Cisbio). In brief, HEK cells were infected with either human GLP2 or GLP1 receptor BacMam virus for 24 hours and frozen for later use in the assay. […] Cells were prepared in the assay buffer (HBSS (Lonza) supplemented with 0.5 mM IBMX (Tocris)). After 45 min incubation at 37° C., the reaction was stopped by addition of the HTRF detection reagents in the lysis buffer provided in the kit.

human GLP1 receptor = molecular target: T2, human GLP1 receptor (Homo sapiens, UniProt P43220); assay: cAMP accumulation assay, functional agonism of human GLP1 receptor; type: cell-based; conditions: HEK cells infected with human GLP1 receptor BacMam virus, HTRF cAMP; for Emax: HEK293, read-out: Human GLP-1R agonist cAMP Emax; for EC50: read-out: Human GLP-1R agonist cAMP pEC50 (converted)
T2 construct: expressed in transfected cells; host or cells: HEK cells, BacMam virus transduction
Description: as §1

T2 sequence (P43220 24-463): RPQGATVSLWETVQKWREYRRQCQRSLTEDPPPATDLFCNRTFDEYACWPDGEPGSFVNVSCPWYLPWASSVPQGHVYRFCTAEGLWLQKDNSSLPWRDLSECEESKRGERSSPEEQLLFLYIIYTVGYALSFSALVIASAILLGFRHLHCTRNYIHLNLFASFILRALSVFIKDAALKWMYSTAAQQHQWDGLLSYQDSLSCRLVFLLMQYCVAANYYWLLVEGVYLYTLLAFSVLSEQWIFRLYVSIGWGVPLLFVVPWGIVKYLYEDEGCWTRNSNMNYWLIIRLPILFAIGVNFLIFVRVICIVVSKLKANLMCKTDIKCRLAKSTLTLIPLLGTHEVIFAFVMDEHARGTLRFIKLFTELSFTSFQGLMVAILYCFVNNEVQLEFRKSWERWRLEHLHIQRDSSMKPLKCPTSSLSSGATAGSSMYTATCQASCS

SMILES	Emax (human GLP2 receptor) [%]	EC50 (human GLP2 receptor) [nM]	Emax (human GLP1 receptor) [%]	EC50 (human GLP1 receptor) [nM]
CCCC[C@H](NC(=O)[C@H](CCC(=O)O)NC(=O)[C@@H]1CC(=O)NCCCC[C@H](NC(=O)[C@H](Cc2nn[nH]n2)NC(=O)C(C)(C)C(=O)NCCc2c[nH]cn2)C(=O)N[C@@H](CO)C(=O)N[C@@H](Cc2ccccc2)C(=O)N[C@@H](CO)C(=O)N1)C(=O)N[C@H](Cc1ccccc1)C(=O)N[C@H]1CCCCNC(=O)C[C@@H](C(=O)N[C@@H](CCCCN)C(=O)N[C@@H](C)C(=O)N[C@@H](C)C(=O)NC(C)(C)C(=O)N[C@@H](CC(=O)O)C(=O)N[C@@H](Cc2ccccc2)C(=O)N[C@H](C(=O)N[C@H]2CCC(=O)NCCCC[C@@H](C(=O)N[C@H]3CCC(=O)NCCCC[C@@H](C(N)=O)NC(=O)[C@H]([C@@H](C)O)NC(=O)[C@H]([C@@H](C)CC)NC(=O)[C@H](CCCCN)NC3=O)NC(=O)[C@H]([C@@H](C)CC)NC(=O)[C@H](CC(C)C)NC(=O)[C@H](Cc3c[nH]c4ccccc34)NC2=O)[C@@H](C)CC)NC(=O)[C@H](CC(=O)O)NC(=O)[C@H](CC(C)C)NC(=O)[C@H]([C@@H](C)CC)NC1=O [Example 42] ({Malonyl(2,2-Me2,histaminyl)}-[Ala(1H-tetrazol-5-yl)]KSFSDE[Nle][dF]KILDDKAA[Aib]DFIEWLIKEKITK-NH2; lactam 2-6, 10-14, 22-26, 27-31; C-terminus assumed)	96.4	0.398	94.1	0.2
CCCC[C@H](NC(=O)[C@H](CCC(=O)O)NC(=O)[C@@H]1CC(=O)NCCCC[C@H](NC(=O)[C@H](CC(=O)O)NC(=O)C(C)(C)NC(=O)[C@@H](N)Cc2c[nH]cn2)C(=O)N[C@@H](CO)C(=O)N[C@@H](Cc2ccccc2)C(=O)N[C@@H](CO)C(=O)N1)C(=O)N[C@H](Cc1ccccc1)C(=O)N[C@H]1CCCCNC(=O)C[C@@H](C(=O)N[C@@H](CCCCN)C(=O)N[C@@H](C)C(=O)N[C@@H](C)C(=O)NC(C)(C)C(=O)N[C@@H](CC(=O)O)C(=O)N[C@@H](Cc2ccccc2)C(=O)N[C@H](C(=O)N[C@H]2CCC(=O)NCCCC[C@@H](C(=O)N[C@H]3CCC(=O)NCCCC[C@@H](C(N)=O)NC(=O)[C@H]([C@@H](C)O)NC(=O)[C@H]([C@@H](C)CC)NC(=O)[C@H](CCCCN)NC3=O)NC(=O)[C@H]([C@@H](C)CC)NC(=O)[C@H](CC(C)C)NC(=O)[C@H](Cc3c[nH]c4ccccc34)NC2=O)[C@@H](C)CC)NC(=O)[C@H](CC(=O)O)NC(=O)[C@H](CC(C)C)NC(=O)[C@H]([C@@H](C)CC)NC1=O [Example 47] (H-H[Aib]DKSFSDE[Nle][dF]KILDDKAA[Aib]DFIEWLIKEKITK-NH2; lactam 4-8, 12-16, 24-28, 29-33; N-terminus and C-terminus assumed)	104	0.158	93.6	0.316
CCCC[C@@H]1NC(=O)[C@H](CCC(=O)O)NC(=O)[C@@H](NC(=O)[C@H](CO)NC(=O)[C@](C)(Cc2ccccc2F)NC(=O)[C@H](CO)NC(=O)[C@@H](C)NC(=O)[C@H](CCC(N)=O)NC(=O)C(C)(C)C(=O)NCCc2c[nH]cn2)CCCCNC(=O)C[C@@H](C(=O)N[C@H](C(=O)N[C@@H](CC(C)C)C(=O)N[C@@H](CC(=O)O)C(=O)N[C@H]2CCC(=O)NCCCC[C@@H](C(=O)N[C@@H](CC(=O)O)C(=O)N[C@@H](Cc3ccccc3)C(=O)N[C@H](C(=O)N[C@H]3CCCCNC(=O)C[C@@H](C(=O)N[C@H]4CCC(=O)NCCCC[C@@H](C(N)=O)NC(=O)[C@H]([C@@H](C)O)NC(=O)[C@H]([C@@H](C)CC)NC(=O)[C@H](CCCCN)NC4=O)NC(=O)[C@H]([C@@H](C)CC)NC(=O)[C@H](CC(C)C)NC(=O)[C@H](Cc4c[nH]c5ccccc45)NC3=O)[C@@H](C)CC)NC(=O)[C@H](C)NC(=O)[C@H](C)NC(=O)[C@H](CCCCN)NC2=O)[C@@H](C)CC)NC(=O)[C@@H](Cc2ccccc2)NC1=O [Example 54] ({Malonyl(2,2-Me2,histaminyl)}-Q[dA]S[αMePhe(2-F)]SKE[Nle][dF]DILDEKAAKDFIKWLIDEKITK-NH2; lactam 6-10, 14-18, 22-26, 27-31 (inferred); C-terminus assumed)	101	0.0316	88.8	0.631

Second part, the molecule after the results:

Emax (human GLP2 receptor) [%]	EC50 (human GLP2 receptor) [nM]	Emax (human GLP1 receptor) [%]	EC50 (human GLP1 receptor) [nM]	SMILES
91.3	0.794	97.8	0.0251	CCCC[C@H](NC(=O)[C@H](CCC(=O)O)NC(=O)[C@@H]1CC(=O)NCCCC[C@H](NC(=O)[C@H](CCC(=O)O)NC(=O)C(C)(C)NC(=O)[C@@H](N)Cc2c[nH]cn2)C(=O)N[C@@H](CO)C(=O)N[C@@](C)(Cc2ccccc2F)C(=O)N[C@@H](CO)C(=O)N1)C(=O)N[C@H](Cc1ccccc1)C(=O)N[C@H](C(=O)N[C@@](C)(CC(C)C)C(=O)N[C@@H](CC(C)C)C(=O)N[C@@H](CC(=O)O)C(=O)N[C@H]1CCC(=O)NCCCC[C@@H](C(=O)N[C@@H](CC(=O)O)C(=O)N[C@@H](Cc2ccccc2)C(=O)N[C@H](C(=O)N[C@H]2CCC(=O)NCCCC[C@@H](C(=O)N[C@H](C(=O)N[C@@H](CCCCN)C(N)=O)[C@@H](C)O)NC(=O)[C@H]([C@@H](C)CC)NC(=O)[C@H](CC(C)C)NC(=O)[C@H](Cc3c[nH]c4ccccc34)NC2=O)[C@@H](C)CC)NC(=O)[C@H](C)NC(=O)[C@H](C)NC(=O)[C@H](CCCCN)NC1=O)[C@@H](C)O [Example 32] (H-H[Aib]EKS[αMePhe(2-F)]SDE[Nle][dF]T[αMeL]LDEKAAKDFIEWLIKTK-NH2; lactam 4-8, 16-20, 24-28 (inferred); C-terminus assumed)
102	0.0316	98.1	0.0251	CCCC[C@H](NC(=O)[C@H](CCC(=O)O)NC(=O)[C@@H]1CC(=O)NCCCC[C@H](NC(=O)[C@H](CC(=O)O)NC(=O)C(C)(C)C(=O)NCCc2c[nH]cn2)C(=O)N[C@@H](CO)C(=O)N[C@@](C)(Cc2ccccc2F)C(=O)N[C@@H](CO)C(=O)N1)C(=O)N[C@H](Cc1ccccc1)C(=O)N[C@H](C(=O)N[C@@](C)(CC(C)C)C(=O)N[C@@H](CC(C)C)C(=O)N[C@@H](CC(=O)O)C(=O)N[C@H]1CCC(=O)NCCCC[C@@H](C(=O)N[C@@H](CC(=O)O)C(=O)N[C@@H](Cc2ccccc2)C(=O)N[C@H](C(=O)N[C@H]2CCC(=O)NCCCC[C@@H](C(=O)N[C@H](C(=O)N[C@@H](CCCCN)C(N)=O)[C@@H](C)O)NC(=O)[C@H]([C@@H](C)CC)NC(=O)[C@H](CC(C)C)NC(=O)[C@H](Cc3c[nH]c4ccccc34)NC2=O)[C@@H](C)CC)NC(=O)[C@H](C)NC(=O)[C@H](C)NC(=O)[C@H](CCCCN)NC1=O)[C@@H](C)O [Example 33] ({Malonyl(2,2-Me2,histaminyl)}-DKS[αMePhe(2-F)]SDE[Nle][dF]T[αMeL]LDEKAAKDFIEWLIKTK-NH2; lactam 2-6, 14-18, 22-26; C-terminus assumed)
104	0.631	96.1	0.2	CCCC[C@H](NC(=O)[C@H](CCC(=O)O)NC(=O)[C@@H]1CC(=O)NCCCC[C@H](NC(=O)[C@H](Cc2nn[nH]n2)NC(=O)C(C)(C)C(=O)NCCc2c[nH]cn2)C(=O)N[C@@H](CO)C(=O)N[C@@H](Cc2ccccc2)C(=O)N[C@@H](CO)C(=O)N1)C(=O)N[C@H](Cc1ccccc1)C(=O)N[C@H](C(=O)N[C@@](C)(CC(C)C)C(=O)N[C@@H](CC(C)C)C(=O)N[C@@H](CC(=O)O)C(=O)N[C@H]1CCC(=O)NCCCC[C@@H](C(=O)N[C@@H](CC(=O)O)C(=O)N[C@@H](Cc2ccccc2)C(=O)N[C@H](C(=O)N[C@H]2CCC(=O)NCCCC[C@@H](C(=O)N[C@H](C(=O)N[C@H]3CCC(=O)NCCCC[C@@H](C(N)=O)NC(=O)[C@H]([C@@H](C)O)NC(=O)[C@H]([C@@H](C)CC)NC3=O)[C@@H](C)O)NC(=O)[C@H]([C@@H](C)CC)NC(=O)[C@H](CC(C)C)NC(=O)[C@H](Cc3c[nH]c4ccccc34)NC2=O)[C@@H](C)CC)NC(=O)[C@H](C)NC(=O)[C@H](C)NC(=O)[C@H](CCCCN)NC1=O)[C@@H](C)O [Example 44] ({Malonyl(2,2-Me2,histaminyl)}-[Ala(1H-tetrazol-5-yl)]KSFSDE[Nle][dF]T[αMeL]LDEKAAKDFIEWLIKTEITK-NH2; lactam 2-6, 14-18, 22-26, 28-31; C-terminus assumed)

From patent publication US20240270809A1, “ORAL GLP RECEPTOR AGONISTS” (priority 2020, published 2024)
